Results taken from patent US20220249617A1, “CYCLODEXTRIN BASED INJECTABLE COFORMULATIONS OF SGLT2 INHIBITORS AND INCRETIN PEPTIDES” (MEDIMMUNE LIMITED, priority 2019, published 2022).
In brackets after ≈: the same amount, converted by molar mass.

How the values were obtained:
[1] = test system: non-human primates; conditions: repeat injections; cited from earlier work
[2] = biological target: T1, human recombinant GLP-1 receptor (Homo sapiens, UniProt P43220); test: In vitro potency assay, cAMP response element luciferase reporter in CHO cells; assay type: cell-based; conditions: MEDI0382 in buffer, in cyclodextrin, and co-formulated with DPZ
T1 construct: expressed in transfected cells; host or cells: CHO-K1
T1 sequence (P43220 24-463): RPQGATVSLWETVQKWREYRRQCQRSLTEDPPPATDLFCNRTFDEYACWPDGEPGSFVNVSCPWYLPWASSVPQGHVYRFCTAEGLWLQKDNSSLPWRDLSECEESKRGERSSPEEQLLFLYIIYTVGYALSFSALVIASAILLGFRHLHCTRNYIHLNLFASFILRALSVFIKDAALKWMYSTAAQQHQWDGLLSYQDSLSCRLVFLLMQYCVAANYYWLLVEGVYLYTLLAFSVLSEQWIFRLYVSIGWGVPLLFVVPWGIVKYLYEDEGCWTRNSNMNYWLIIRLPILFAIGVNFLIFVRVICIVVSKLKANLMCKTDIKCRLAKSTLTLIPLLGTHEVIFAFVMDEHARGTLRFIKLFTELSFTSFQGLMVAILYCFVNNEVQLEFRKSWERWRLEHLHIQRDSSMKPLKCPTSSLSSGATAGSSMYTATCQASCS
Protocol: (§1) Briefly, cells were plated at 20,000 cells per well in 96-well white microtiter plates (Corning, USA) and incubated with serially diluted peptide samples for 4 hours prior to lysis and measurement of cAMP dependent luciferase activity using Steady-Glo luciferase substrate (Promega, USA). Plates were read on a SpectraMax Paradigm plate reader (Molecular Devices, USA), and 10-point concentration-response curves were generated in triplicate. Results were expressed as the relative potency of the test sample compared to a reference ligand by calculating the ratio of the reference and sample EC50 values from a 4-PL fit following a test for parallelism using SoftMax Pro software (Molecular Devices, USA), and the reported data was the mean of two independent assays. Curves were fitted using nonlinear regression analysis in GraphPad Prism software 6.03 (GraphPad, USA).
(§2) Although HPβCD enhances the physical stability of the peptide, the loss of alpha-helix could have a dramatic impact on the potency of the peptide. […] The in vitro potency was assessed on CHO cells over-expressing human recombinant GLP-1 or glucagon receptors, and the activity was reported as EC50 values after measurement of cAMP accumulation.

[3] = biological target: T2, human recombinant glucagon receptor (Homo sapiens, UniProt P47871); test: as above; assay type: cell-based; conditions: MEDI0382 in buffer, in cyclodextrin, and co-formulated with DPZ
T2 construct: expressed in transfected cells; host or cells: CHO-K1
T2 sequence (P47871 26-477): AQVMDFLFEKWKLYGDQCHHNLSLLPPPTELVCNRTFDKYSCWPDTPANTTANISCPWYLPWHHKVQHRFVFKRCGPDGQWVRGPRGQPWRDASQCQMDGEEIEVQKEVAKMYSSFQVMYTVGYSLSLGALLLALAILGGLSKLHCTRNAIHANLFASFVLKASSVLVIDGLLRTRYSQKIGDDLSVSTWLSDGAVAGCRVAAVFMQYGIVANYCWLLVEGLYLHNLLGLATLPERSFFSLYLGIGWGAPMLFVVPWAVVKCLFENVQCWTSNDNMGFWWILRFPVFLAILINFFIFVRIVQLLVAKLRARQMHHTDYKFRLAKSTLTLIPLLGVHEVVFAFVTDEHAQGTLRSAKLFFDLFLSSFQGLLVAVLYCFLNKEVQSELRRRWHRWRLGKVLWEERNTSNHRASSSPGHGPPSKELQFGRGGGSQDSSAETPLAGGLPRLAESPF
Protocol: as §1, §2

[4] = test system: DIO mice; conditions: repeat injections; cited from earlier work
[5] = test system: overweight and obese patients with type 2 diabetes; conditions: cited from earlier work
[6] = cited from earlier work
[7] = physchem
Protocol: Various HPβCD (Kleptose HPB, Roquette) solutions at increasing concentrations were prepared in water ranging from 5% to 20% (w/v). Briefly, HPβCD was weighed in a volumetric flask and purified water was added up to 80% (v/v) of final volume. The flask was mixed until full solubilisation and made up to final volume with purified water. […] Each concentration was done in duplicate. The formulations were left under magnetic stirring for 21 h 40 min. Each sample was then transferred to a 1.5 mL eppendorf and centrifuged at 13,000 rpm for 10 min. Then 200 μL was taken from the supernatant and centrifuged again in a 1.5 mL eppendorf for 30 min at 13,000 rpm. The samples were finally diluted in buffer A (95% HPLC water/5% ACN+0.03% TFA), and the concentration was measured by UPLC against a calibration curve validated with quality controls.

[8] = Pharmacokinetic study after subcutaneous injection in rats; assay type: in vivo; conditions: DPZ 0.5 mg/kg
Protocol: For the PK study, MEDI0382 alone in buffer was prepared at 0.5 mg/mL in 50 mM Na Phosphate buffer pH 7.8+1.85% propylene glycol (PG) (J. T. Baker).
The cyclodextrin vehicle used for the PK study was 7% w/v HPβCD in 50 mM Na Phosphate buffer pH 7.8+0.5% v PG. The PG was added to adjust the osmolarity of the formulations to 260 mOsm. […] In parallel, MEDT0382 alone in buffer was prepared at 0.5 mg/mL in 50 mM NaP buffer pH 7.8+1.85% v/v PG. The formulations were then diluted to 1/10 with their corresponding vehicle.
Three animals per group were included, and serial blood sampling for PK evaluation occurred at 0.5, 1, 2, 4, 7, and 24 hr post dose.

[9] = oral administration; cited from earlier work
[10] = target 17 mg/mL DPZ; formulation containing cyclodextrin (HPβCD); visual observation
Protocol: The appropriate aqueous vehicle was added onto the powder to achieve a final concentration of 17 mg/mL, vortex mixed, and sonicated. The pass/fail criteria for the formulation was determined through visual observation.
The screening assay was therefore designed to target a concentration of 17 mg/mL, corresponding to a […] dose in 600 μL dose volume. […] The excipients screened included PEG 400, PG, DSPE-PEG 2000, Glycerol, Kolliphor 188, HPβCD, and BSA. […] Only the formulation containing cyclodextrin was successful and therefore taken forward for further evaluation as a potential co-formulation vehicle.

CCCCCCCCCCCCCCCC(=O)N[C@@H](CCC(=O)NCCCC[C@H](NC(=O)[C@H](CC(=O)O)NC(=O)[C@H](CO)NC(=O)[C@@H](NC(=O)[C@H](Cc1ccccc1)NC(=O)[C@@H](NC(=O)CNC(=O)[C@H](CCC(N)=O)NC(=O)[C@H](CO)NC(=O)[C@@H](N)Cc1c[nH]cn1)[C@@H](C)O)[C@@H](C)O)C(=O)N[C@@H](CO)C(=O)N[C@@H](CCC(=O)O)C(=O)N[C@@H](Cc1ccc(O)cc1)C(=O)N[C@@H](CC(C)C)C(=O)N[C@@H](CC(=O)O)C(=O)N[C@@H](CO)C(=O)N[C@@H](CCC(=O)O)C(=O)N[C@@H](CCCNC(=N)N)C(=O)N[C@@H](C)C(=O)N[C@@H](CCCNC(=N)N)C(=O)N[C@@H](CC(=O)O)C(=O)N[C@@H](Cc1ccccc1)C(=O)N[C@H](C(=O)N[C@@H](C)C(=O)N[C@@H](Cc1c[nH]c2ccccc12)C(=O)N[C@@H](CC(C)C)C(=O)N[C@@H](CCC(=O)O)C(=O)N[C@@H](C)C(=O)NCC(=O)NCC(=O)O)C(C)C)C(=O)O [MEDI0382]
effect on weight and glucose [1]: marked weight loss and robust glucose control | EC50 (cAMP accumulation), change between formulations [2]: no change of EC50 | EC50 (cAMP accumulation), change between formulations [3]: no change of EC50 | effect on weight and glucose [4]: marked weight loss and robust glucose control | clinical efficacy [5]: glucose, weight and liver fat lowering efficacy

glucagon
pKa of N-terminal His alpha-amino group [6]: 7.6 | pKa of N-terminal His imidazole group [6]: 7.4

CCOc1ccc(Cc2cc([C@@H]3O[C@H](CO)[C@@H](O)[C@H](O)[C@H]3O)ccc2Cl)cc1 [DPZ, dapagliflozin]
amount of HPβCD required to increase the solubility up to 17 mg/mL [7]: 5.5 % (w/v) | solubility change with increasing HPβCD concentration [7]: linearly increased | stoichiometry of inclusion complex (phase solubility) [7]: 1:1 | solubility at 21.67 h ([7]; water, thermodynamic from solid): 1.6 mg/mL (≈ 3.91 mM) | PK of DPZ in the presence of MEDI0382 [8]: unchanged | absolute bioavailability [9]: 78% | Solubility screen result (pass/fail) [10]: successful

OC[C@H]1O[C@@H](c2ccc(Cl)c(Cc3ccc(O[C@H]4CCOC4)cc3)c2)[C@H](O)[C@@H](O)[C@@H]1O [EPZ, empagliflozin]
solubility change with increasing HPβCD concentration [7]: linear solubility increase
